From publication PMC12113356, “Novel Anti-MRSA Peptide from Mangrove-Derived Virgibacillus chiguensis FN33 Supported by Genomics and Molecular Dynamics” (Marine Drugs, 2025)
≈ marks a conversion by molar mass, not a printed value. Where two headings read alike, the source gives them in different places.

Tests used:
[1] = DPPH radical-scavenging assay; settings: 0.1 mM DPPH, 25 °C, 30 min in darkness, absorbance 517 nm; mean ± SD, n = 3
Method: A 200 μL sample or ascorbic acid (Gammaco Ltd., Bangkok, Thailand) was added to 2 mL of 0.1 mM DPPH solution (Merck Ltd., Bangkok, Thailand) and incubated at 25 °C in darkness for 30 min. The DPPH color change from purple to pale yellow was observed, and the absorbance at 517 nm was measured using a UV–visible spectrophotometer.

MRSA strain 2468 [2] = assay: Compatibility with surfactants (activity retention by agar well diffusion); type: physicochemical, Staphylococcus aureus; settings: surfactant 1% w/v alone, no AMP, agar well diffusion, % of untreated FN33 AMP sample, mean ± SD, n = 3
Method: The AMP solution was prepared in sterile purified water and adjusted to a final concentration of 32 µg/mL. To determine thermal stability, the AMP was exposed to temperatures of 30, 40, 60, 80, and 100 °C, as well as to autoclaving at 121 °C and 15 psi for 15 and 30 min. The susceptibility of the AMP to enzymatic degradation was examined by treating it with proteinase K, trypsin, and α-chymotrypsin (each at 1 mg/mL, Sigma-Aldrich, Warren, MI, USA), representing different proteolytic mechanisms. The AMP’s compatibility with surfactants was assessed by incubating it with 1% SDS, 1% CTAB, and 1% Triton X-100 (AppliChem GmbH, Darmstadt, Germany). Additionally, the effect of pH variations on AMP integrity was tested by adjusting the solution to pH 1, 4, 8, 10, and 14. The pH was neutralized to the original pH after incubation before conducting antibacterial activity tests. […] Stability data were expressed as residual activity percentages relative to the untreated sample (mean ± SD), and statistical significance was evaluated using two-way ANOVA and Tukey’s post hoc test, with a p-value < 0.05 considered significant.

MRSA strains = assay: Broth microdilution MIC/MBC (CLSI), for the MRSA strains together; type: cell-based; settings: Staphylococcus aureus
Method: (§1) The broth microdilution method was performed following the guidelines of the Clinical and Laboratory Standards Institute (CLSI). Test strains including S. aureus TISTR 517 and MRSA strains 142, 1096, and 2468 were cultured on MH agar at 37 °C for 18 h. A single colony from each strain was suspended in 0.85% NaCl until it reached a turbidity of 0.1 OD at 625 nm (1 × 10^8 CFU/mL). The bacterial cells were then diluted to 5 × 10^6 CFU/mL using cation-adjusted Mueller–Hinton broth (CAMHB). Ten microliters of the cell suspension were added to each well of a 96-well plate to make the total volume in each well 100 µL. The AMP was added to achieve final concentrations ranging from 0.125 to 64 µg/mL. Vancomycin and cefoxitin were used as positive controls, while antibiotic-free samples were used as negative controls. The plate was incubated at 37 °C for 24 h. Each experiment was performed in triplicate. The MIC was determined as the lowest concentration that inhibited visible bacterial growth. For the MBC, 100 µL from each dilution was spread on MH agar and incubated at 37 °C for 24 h. The MBC was the lowest concentration at which no bacterial colonies appeared on the agar plates.

MRSA strain 2468 [3] = assay: Broth microdilution MIC/MBC (CLSI); type: cell-based; settings: Staphylococcus aureus
Method: as §1

MRSA strain 1096 [4] = assay: Broth microdilution MIC/MBC (CLSI); type: cell-based; settings: Staphylococcus aureus
Method: as §1

MRSA strain 142 [5] = assay: Broth microdilution MIC/MBC (CLSI); type: cell-based; settings: Staphylococcus aureus
Method: as §1

E. coli TISTR 887 = assay: Agar well diffusion method; type: cell-based; settings: 9 mm wells, MH agar, 37 °C 18 h, antibiotics 30 µg, mean ± SD, n = 3
Method: (§2) The optical density of the starter cultures was adjusted to 0.1 OD at 625 nm using 0.85% sterile NaCl solution before transferring 1 mL of the culture into 49 mL of fresh broth. The inoculum was then incubated at 30 °C with shaking at 150 rpm for 3 days. The CFS was obtained by centrifugation at 10,000× g at 4 °C for 15 min and filtered through a 0.2 µm sterile cellulose acetate syringe filter (Sigma-Aldrich, Warren, MI, USA). The antibacterial activity of the isolates was tested against S. aureus TISTR 517, E. coli TISTR 887, K. pneumoniae TISTR 1383, and P. aeruginosa TISTR 357, obtained from the Thailand Institute of Scientific and Technological Research (TISTR), Thailand, and three MRSA strains (strains 142, 1096, and 2468), provided by the medical technology laboratory of the School of Allied Health Sciences, Walailak University, Thailand. The pathogenic bacteria were incubated on MH agar at 37 °C for 18 h to obtain fresh cultures. Colonies of the test pathogens were scraped and suspended in 0.85% sterile NaCl solution. The test pathogen suspensions were adjusted to a turbidity equivalent to 0.1 OD at 625 nm before being spread onto MH agar plates. […] Wells with a diameter of 9 mm were made in the agar using a sterile cork borer. The collected CFS from the bacterial culture was transferred into the wells, and the plates were incubated at 37 °C for 18 h. Cefoxitin (30 µg) and vancomycin (30 µg) (Sigma-Aldrich Co., St. Louis, MO, USA) were used as positive controls. The experiment was repeated in triplicate, and the mean ± SD of the inhibition zone diameters was recorded.

K. pneumoniae TISTR 1383 = assay: Agar well diffusion method; type: cell-based; settings: 9 mm wells, MH agar, 37 °C 18 h, antibiotics 30 µg, mean ± SD, n = 3
Method: as §2

P. aeruginosa TISTR 357 = assay: Agar well diffusion method; type: cell-based; settings: 9 mm wells, MH agar, 37 °C 18 h, antibiotics 30 µg, mean ± SD, n = 3
Method: as §2

S. aureus TISTR 517 [6] = assay: Broth microdilution MIC/MBC (CLSI); type: cell-based, Staphylococcus aureus
Method: as §1

MRSA strain 2468 [7] = assay: Agar well diffusion method; type: cell-based, Staphylococcus aureus; settings: 9 mm wells, MH agar, 37 °C 18 h, antibiotics 30 µg, mean ± SD, n = 3
Method: as §2

S. aureus TISTR 517 [8] = assay: Agar well diffusion method; type: cell-based, Staphylococcus aureus; settings: 9 mm wells, MH agar, 37 °C 18 h, antibiotics 30 µg, mean ± SD, n = 3
Method: as §2

MRSA strain 1096 [9] = assay: Agar well diffusion method; type: cell-based, Staphylococcus aureus; settings: 9 mm wells, MH agar, 37 °C 18 h, antibiotics 30 µg, mean ± SD, n = 3
Method: as §2

MRSA strain 142 [10] = assay: Agar well diffusion method; type: cell-based, Staphylococcus aureus; settings: 9 mm wells, MH agar, 37 °C 18 h, antibiotics 30 µg, mean ± SD, n = 3
Method: as §2

MRSA strain 2468 [11] = assay: Scanning electron microscopy of treated cells; type: cell-based, Staphylococcus aureus; settings: 1× MIC, 16 h / 18 h (figure legend), 30,000× magnification
Source text: (§3) SEM was used to examine morphological alterations in the bacterial cells. […] This appearance reflected their natural cellular structure.
(§4) Figure 5 SEM images captured at 30,000× magnification. […] The non-treatment condition served as a negative control.

S. aureus TISTR 517 [12] = assay: Scanning electron microscopy of treated cells; type: cell-based, Staphylococcus aureus; settings: 1× MIC, 16 h / 18 h (figure legend), 30,000× magnification
Source text: as §3, §4

[13] = 100 µL of each dilution spread on MH agar, 37 °C 24 h, triplicate, read-out: MBC
[14] = broth microdilution, CAMHB, 37 °C 24 h, triplicate, read-out: MIC
[15] = 100 µL of each dilution spread on MH agar, 37 °C 24 h, triplicate
[16] = broth microdilution, CAMHB, 37 °C 24 h, triplicate
[17] = Staphylococcus aureus, TISTR517, 24 h

Compound	Antibacterial activity against MRSA Strain 2468 of surfactant alone, on the scale of FN33 AMP activity retention (%) (MRSA strain 2468 [2]; 1 h)	Antibacterial activity against MRSA Strain 2468 of surfactant alone, on the scale of FN33 AMP activity retention (%) (MRSA strain 2468 [2]; 6 h)	Antibacterial activity against MRSA Strain 2468 of surfactant alone, on the scale of FN33 AMP activity retention (%) (MRSA strain 2468 [2]; 12 h)	Zone of Inhibition (E. coli TISTR 887) [mm]	Zone of Inhibition (K. pneumoniae TISTR 1383) [mm]	Zone of Inhibition (P. aeruginosa TISTR 357) [mm]	MBC (S. aureus TISTR 517 [6]; [15]) [µg/mL]	MIC (S. aureus TISTR 517 [6]; [16]) [µg/mL]	Zone of Inhibition (MRSA strain 2468 [7]) [mm]	Zone of Inhibition (S. aureus TISTR 517 [8]) [mm]	Zone of Inhibition (MRSA strain 1096 [9]) [mm]	Zone of Inhibition (MRSA strain 142 [10]) [mm]	further results
O=C1O[C@H]([C@@H](O)CO)C(O)=C1O [Ascorbic acid, ascorbic acid, reference compound]	–	–	–	–	–	–	–	–	–	–	–	–	IC50 (DPPH radical scavenging) [1]: 6.78 ± 1.58 µg/mL (≈ 38.5 µM)
CCCCCCCCCCCCCCCC[N+](C)(C)C [CTAB, cetyltrimethylammonium bromide, reference compound]	98.62 ± 0.69	98.89 ± 1.10	98.42 ± 0.72	–	–	–	–	–	–	–	–	–	–
CO[C@@]1(NC(=O)Cc2cccs2)C(=O)N2C(C(=O)O)=C(COC(N)=O)CS[C@@H]21 [Cefoxitin]	–	–	–	35.12 ± 1.04	19.67 ± 0.88	0.00 ± 0.00	2 (≈ 4.68 µM)	2 (≈ 4.68 µM)	0.00 ± 0.00	35.87 ± 0.46	0.00 ± 0.00	0.00 ± 0.00	MBC (MRSA strains; text statement for the MRSA strains (142, 1096, 2468) together, read-out: MBC): > 64 µg/mL; MIC (MRSA strains; text statement for the MRSA strains (142, 1096, 2468) together, read-out: MIC): > 64 µg/mL; MBC (MRSA strain 2468 [3]; [13]): > 64 µg/mL; MIC (MRSA strain 2468 [3]; [14]): > 64 µg/mL; MBC (MRSA strain 1096 [4]; [13]): > 64 µg/mL; MIC (MRSA strain 1096 [4]; [14]): > 64 µg/mL; MBC (MRSA strain 142 [5]; [13]): > 64 µg/mL; MIC (MRSA strain 142 [5]; [14]): > 64 µg/mL; MBC (S. aureus TISTR 517 [6]; Staphylococcus aureus, TISTR517, 100 µL of each dilution spread on MH agar, 37 °C 24 h, triplicate, read-out: MBC): 2 µg/mL (≈ 4.68 µM); MIC (S. aureus TISTR 517 [6]; Staphylococcus aureus, TISTR517, broth microdilution, CAMHB, 37 °C 24 h, triplicate, read-out: MIC): 2 µg/mL (≈ 4.68 µM)
CCCCCCCCCCCCOS(=O)(=O)[O-].[Na+] [SDS, sodium dodecyl sulfate, reference compound]	110.10 ± 0.84	109.30 ± 0.56	108.93 ± 0.57	–	–	–	–	–	–	–	–	–	–
CN[C@H](CC(C)C)C(=O)N[C@H]1C(=O)N[C@@H](CC(N)=O)C(=O)N[C@H]2C(=O)N[C@H]3C(=O)N[C@H](C(=O)N[C@H](C(=O)O)c4cc(O)cc(O)c4-c4cc3ccc4O)[C@H](O)c3ccc(c(Cl)c3)Oc3cc2cc(c3O[C@@H]2O[C@H](CO)[C@@H](O)[C@H](O)[C@H]2O[C@H]2C[C@](C)(N)[C@H](O)[C@H](C)O2)Oc2ccc(cc2Cl)[C@H]1O [Vancomycin]	–	–	–	0.00 ± 0.00	0.00 ± 0.00	0.00 ± 0.00	2 (≈ 1.38 µM)	2 (≈ 1.38 µM)	24.64 ± 1.02	23.37 ± 1.27	24.38 ± 0.51	24.13 ± 1.27	MBC (MRSA strains; MRSA): 2 µg/mL (≈ 1.38 µM); MIC (MRSA strains; MRSA): 2 µg/mL (≈ 1.38 µM); MBC (MRSA strain 2468 [3]; 24 h): 2 µg/mL (≈ 1.38 µM); MIC (MRSA strain 2468 [3]; 24 h): 2 µg/mL (≈ 1.38 µM); MBC (MRSA strain 1096 [4]; 24 h): 2 µg/mL (≈ 1.38 µM); MIC (MRSA strain 1096 [4]; 24 h): 2 µg/mL (≈ 1.38 µM); MBC (MRSA strain 142 [5]; 24 h): 2 µg/mL (≈ 1.38 µM); MIC (MRSA strain 142 [5]; 24 h): 2 µg/mL (≈ 1.38 µM); morphological changes under SEM (MRSA strain 2468 [11]): complete cell lysis; morphological changes under SEM (S. aureus TISTR 517 [12]): complete cell lysis; MBC (S. aureus TISTR 517 [6]; [17]): 2 µg/mL (≈ 1.38 µM); MIC (S. aureus TISTR 517 [6]; [17]): 2 µg/mL (≈ 1.38 µM)
Triton X-100 [reference compound]	0.00 ± 0.00	0.00 ± 0.00	0.00 ± 0.00	–	–	–	–	–	–	–	–	–	–
